Values of other authors, collected in patent publication US20220340870A1, “FUNCTIONAL NEUROMODULATORY ASSEMBLOIDS” (The Board of Trustees of the Leland Stanford Junior …, priority 2019, published 2022).
pKd: −log10 of the molar value.

Target: Smo (Homo sapiens, UniProt Q99835)
Settings: interacting with the Smo heptahelical domain

Chain of Smo (Q99835 28-787): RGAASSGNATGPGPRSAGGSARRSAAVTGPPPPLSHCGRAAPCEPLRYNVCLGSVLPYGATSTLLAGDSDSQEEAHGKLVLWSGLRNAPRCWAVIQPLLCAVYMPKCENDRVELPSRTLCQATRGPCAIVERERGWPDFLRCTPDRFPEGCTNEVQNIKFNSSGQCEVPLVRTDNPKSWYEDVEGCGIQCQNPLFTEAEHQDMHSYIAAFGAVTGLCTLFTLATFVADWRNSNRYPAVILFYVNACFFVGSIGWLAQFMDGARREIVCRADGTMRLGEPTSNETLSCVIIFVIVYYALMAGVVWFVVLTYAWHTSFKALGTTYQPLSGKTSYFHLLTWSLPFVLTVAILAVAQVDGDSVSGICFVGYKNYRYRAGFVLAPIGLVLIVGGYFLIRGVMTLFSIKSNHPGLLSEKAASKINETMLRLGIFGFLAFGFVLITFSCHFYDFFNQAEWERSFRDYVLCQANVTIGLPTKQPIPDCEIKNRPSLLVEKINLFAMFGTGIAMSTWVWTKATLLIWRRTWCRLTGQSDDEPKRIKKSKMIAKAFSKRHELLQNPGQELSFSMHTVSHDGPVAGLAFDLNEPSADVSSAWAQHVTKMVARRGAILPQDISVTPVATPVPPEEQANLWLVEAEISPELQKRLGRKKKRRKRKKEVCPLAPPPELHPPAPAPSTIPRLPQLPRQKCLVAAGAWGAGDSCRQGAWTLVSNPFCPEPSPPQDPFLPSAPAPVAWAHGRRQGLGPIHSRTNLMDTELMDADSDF

pKd: 7.23
Structure (SMILES): CNC1CCC(N(Cc2cccc(-c3ccncc3)c2)C(=O)c2sc3ccccc3c2Cl)CC1 (stereo not shown) [SAG]
